Experiment [1] has as its system dopamine (symptoms elicited with the dopamine agonist apomorphine). In words: combined apomorphine (APO), tryptamine (TRY) and norepinephrine (NOR) test in rats: apomorphine (APO). Conditions: Rattus norvegicus, read-out: APO ED50. The format is in vivo.
Experiment [2] deals with serotonin (central symptoms, convulsions, elicited with serotonin or tryptamine). Briefly: combined APO, TRY, NOR test in rats: tryptamine (TRY) convulsions. It counts as in vivo. Conditions: Rattus norvegicus, read-out: TRY convulsions ED50.
Experiment [3] deals with serotonin (peripheral symptoms, hyperaemia, elicited with serotonin or tryptamine). Briefly: combined APO, TRY, NOR test in rats: tryptamine (TRY) hyperaemia. The format is in vivo. The conditions noted are these: Rattus norvegicus.
The test system of experiment [4] is norepinephrine (death upon administration of the α2 -agonist norepinephrine). In words: animal or person. It counts as in vivo, rats. Conditions: Rattus norvegicus, read-out: NOR ED50.
Setting [5] is: combined test in rats, apomorphine.
Setting [6] is: combined test in rats, tryptamine, central (convulsions).

Where two headings read alike, the source gives them in different places.

`COc1cccn2c(=O)c(CCN3CCC(c4noc5cc(F)ccc45)CC3)c(C)nc12` [Compound 1, 3-[2-[4-(6-fluoro-1,2-benzisoxazol-3-yl)-1-piperidinyl]ethyl]-9-methoxy-2-methyl-4H-pyrido[1,2-a]pyrimidin-4-one]: the ED50 in experiment [1] (setting [5]) was found to be 0.31 mg/kg; in experiment [2] (setting [6]), 0.16 mg/kg; in experiment [3], 2.5 µg/kg.

Take `COCCOC1CCCn2c1nc(C)c(CCN1CCC(c3noc4cc(F)ccc34)CC1)c2=O` (stereo not drawn) [Compound 11]: the ED50 in experiment [1] (setting [5]) was 0.31 mg/kg; in experiment [2] (setting [6]), 0.63 mg/kg; in experiment [3] it was 1.25 µg/kg; in experiment [4], 1.25 mg/kg.

`CCCCCCCCCCCCOc1cccn2c(=O)c(CCN3CCC(c4noc5cc(F)ccc45)CC3)c(C)nc12` [Compound 3]: the median effective dose (ED50) is above 10 mg/kg in experiment [1] (setting [5]), above 10 mg/kg in experiment [2] (setting [6]) and 1250 µg/kg in experiment [3].

Turning to `Cc1nc2c(OCCCC#N)cccn2c(=O)c1CCN1CCC(c2noc3cc(F)ccc23)CC1` [Compound 5], the ED50 amounted to 1.25 mg/kg in experiment [1], 1.25 mg/kg in experiment [2], 5 µg/kg in experiment [3] and 1.25 mg/kg in experiment [4].

With `CCCCCCCCCCCCOC1CCCn2c1nc(C)c(CCN1CCC(c3noc4cc(F)ccc34)CC1)c2=O` (stereo not drawn) [Compound 9], the median effective dose (ED50) turned out to be 10 mg/kg in experiment [1] (setting [5]), 1.25 mg/kg in experiment [2] (setting [6]), 10 µg/kg in experiment [3] and 2.5 mg/kg in experiment [4].

`CCOCOC1CCCn2c1nc(C)c(CCN1CCC(c3noc4cc(F)ccc34)CC1)c2=O` (stereo not drawn) [Compound 8]: the ED50 stood at 0.31 mg/kg in experiment [1] (setting [5]), 0.16 mg/kg in experiment [2] (setting [6]) and 1.25 µg/kg in experiment [3].

On to `CCCOC1CCCn2c1nc(C)c(CCN1CCC(c3noc4cc(F)ccc34)CC1)c2=O` (stereo not drawn) [Compound 10, 3-[2-[4-(6-fluoro-1,2-benzisoxazol-3-yl)-1-piperidinyl]ethyl]-6,7,8,9-tetrahydro-2-methyl-9-propoxy-4H-pyrido[1,2-a]pyrimidin-4-one], for which the ED50 in experiment [1] (setting [5]) is 0.08 mg/kg; in experiment [2] (setting [6]), 0.08 mg/kg; in experiment [3] it was 2 µg/kg; in experiment [4], 0.16 mg/kg.

Take `COC1CCCn2c1nc(C)c(CCN1CCC(c3noc4cc(F)ccc34)CC1)c2=O` (racemic) [Compound 7, (±)-3-[2-[4-(6-fluoro-1,2-benzisoxazol-3-yl)-1-piperidinyl]ethyl]-6,7,8,9-tetrahydro-9-methoxy-2-methyl-4H-pyrido[1,2-a]pyrimidin-4-one]: the figures for the ED50 in experiment [1] (setting [5]), in experiment [2] (setting [6]) and in experiment [3] were 0.02 mg/kg, 0.02 mg/kg and 1.25 µg/kg, respectively.

With `C#CCOc1cccn2c(=O)c(CCN3CCC(c4noc5cc(F)ccc45)CC3)c(C)nc12` [Compound 6, 3-[2-[4-(6-fluoro-1,2-benzisoxazol-3-yl)-1-piperidinyl]ethyl]-2-methyl-9-(2-propynyloxy)-4H-pyrido[1,2-a]pyrimidin-4-one], the ED50 in experiment [1] (setting [5]), in experiment [2] (setting [6]) and in experiment [4] was below 0.63 mg/kg each time.

`CCOCOc1cccn2c(=O)c(CCN3CCC(c4noc5cc(F)ccc45)CC3)c(C)nc12` [Compound 2, 9-(ethoxymethoxy)-3-[2-[4-(6-fluoro-1,2-benzisoxazol-3-yl)-1-piperidinyl]ethyl]-2-methyl-4H-pyrido[1,2-a]pyrimidin-4-one]: the ED50 is 1.25 mg/kg in experiment [1], 1.25 mg/kg in experiment [2], 10 µg/kg in experiment [3] and 1.25 mg/kg in experiment [4].

With `C=CCOc1cccn2c(=O)c(CCN3CCC(c4noc5cc(F)ccc45)CC3)c(C)nc12` [Compound 4, 3-[2-[4-(6-fluoro-1,2-benzisoxazol-3yl)-1-piperidinyl]ethyl]-2-methyl-9-(2-propenyloxy)-4H-pyrido[1,2-a]pyrimidin-4-one], the ED50 in experiment [1] (setting [5]) stood at 0.31 mg/kg; in experiment [2] (setting [6]), 0.31 mg/kg; in experiment [3] it was 5 µg/kg; in experiment [4], 0.16 mg/kg.
